Assay: refractive index (Na D-line) (dimensionless); xn = mol fraction of the nth substance listed
Conditions: 101 kPa, Liquid, Standard Abbe refractometry

NC=O [formamide] + CCCCO
refractive index
Conditions	x1 = 0.1093	x1 = 0.2057	x1 = 0.3138	x1 = 0.4104	x1 = 0.5115	x1 = 0.6124	x1 = 0.7081	x1 = 0.8123	x1 = 0.9086	x1 = 1
293.15 K	1.4023	1.4052	1.4086	1.4119	1.4158	1.4203	1.4252	1.4316	1.4389	1.4475
298.15 K	1.4003	1.4032	1.4067	1.4101	1.4141	1.4187	1.4238	1.4303	1.4378	1.4467
303.15 K	1.3983	1.4012	1.4048	1.4083	1.4124	1.4171	1.4223	1.429	1.4367	1.4459
308.15 K	1.3963	1.3992	1.4029	1.4065	1.4107	1.4155	1.4208	1.4277	1.4357	1.4451
313.15 K	1.3943	1.3973	1.4011	1.4047	1.409	1.4139	1.4194	1.4264	1.4345	1.4442
318.15 K	1.3923	1.3954	1.3992	1.4029	1.4073	1.4123	1.4179	1.4251	1.4334	1.4433

NC=O [formamide] + OCCCCO
x1 = 1
Conditions	refractive index
293.15 K	1.4475
298.15 K	1.4467
303.15 K	1.4459
308.15 K	1.4451
313.15 K	1.4442
318.15 K	1.4433
